Values of other authors in US20120087953A1, “PHARMACEUTICAL COMPOSITIONS OF ACTIVE PHARMACEUTICAL INGREDIENT COMPRISING SULPHONYLUREA MOIETY WITH EXCELLENT DISSOLUTION PROPERTIES” (LEK PHARMACEUTICALS D.D., priority 2009, published 2012).

Settings: acidic medium, 37° C.

solubility: less than 0.001 mg/mL
SMILES: CCC1=C(C)CN(C(=O)NCCc2ccc(S(=O)(=O)NC(=O)N[C@H]3CC[C@H](C)CC3)cc2)C1=O [glimepiride]
